Measurements reported in patent US20250144056A1, “ANTIMICROBIAL HOST DEFENSE PEPTIDE-INDUCING COMPOSITIONS AND METHODS OF PRODUCTION AND USE THEREOF” (Board of Regents for the Oklahoma Agricultural and …, priority 2022, published 2025).

What was measured:
[1] = tested on: AvBD9 gene promoter; assay: HTC/AvBD9-luc luciferase reporter assay; assay type: cell-based, chicken
Method: Culture and stimulation of a stable HTC/AvBD9-luc luciferase reporter cell line. A stable HTC/AvBD9-luc cell line was generated by cloning a 2.0-Kb AvBD9 gene promoter fragment into a lentiviral luciferase reporter vector, pGreenFire1-mCMV-Puro (System Biosciences, Palo Alto, CA) and then transfected into HTC cells as previously described (22). The stable cell line was maintained in RPMI 1640 containing 10% heat-inactivated FBS, 100 U/ml penicillin, 100 μg/mL streptomycin, and 0.5 μg/mL puromycin and subcultured every 3-4 days. To measure transcriptional activation of the AvBD9 gene promoter in response to different epigenetic compounds, cells were seeded at 4×10^4 cells/well in white 96-well tissue culture plates and stimulated in duplicate with different compounds individually or in combination for 24 h. An equal amount of a solvent was applied as a negative control. Luciferase activity was measured using STEADY-GLO® Luciferase Assay System (Promega, Madison, WI) on an L-Max II luminescence microplate reader (Molecular Devices, Sunnyvale, CA). Cell viabilities were assessed by adding alamarBlue Reagent (ThermoFisher, Waltham, MA) to cell culture 4 h before luciferase assay. Relative luciferase activity was determined for each well after normalization to the cell viability as previously described (22).

[2] = tested on: chicken HDP genes; assay: RT-qPCR of multiple HDP genes in HTC cells; assay type: cell-based
Method: (§1) Culture and stimulation of macrophages. Two different chicken macrophage cell lines, HTC (24) and HD11 (25), were kindly provided by Dr. Narayan C. Rath and Dr. Hyun Lillehoj of USDA-ARS and maintained in RPMI 1640 containing 10% heat-inactivated FBS, 100 U/ml penicillin, and 100 μg/ml streptomycin and subcultured every 3-4 days. After overnight seeding at 1.5×10^6 cells/well in 6-well cell culture plates, cells were treated with different concentrations of each compound for 24 h or with the indicated concentration of each compound for various lengths of time for dose-response and time-course experiments, respectively. […]
(§2) Total RNA extraction and gene expression analysis. […] Gene expression was performed using reverse transcription-quantitative PCR (RT-qPCR) as previously described (27-29). […] The cDNA was then diluted 10-fold with RNase-free water prior to real-time PCR using QuantiTect SYBR® Green PCR Kit (Qiagen, Valencia, CA) in 10-μl reactions using primers specific for HDP, barrier function, and inflammatory cytokine genes as described (27, 29, 30). […] The fold changes in gene expression in the cells treated with individual compounds or in combinations were calculated relative to the cells treated with an equal volume of RPMI 1640 or DMSO using the ΔΔCt method (31).

[3] = tested on: AvBD2; assay: RT-qPCR of AvBD2 in HTC cells; assay type: cell-based, chicken; conditions: BIX01294 with 2 mM butyrate, 24 h (FIG. 5)
Method: as §1, §2

[4] = tested on: AvBD4; assay: RT-qPCR of AvBD4 in HTC cells; assay type: cell-based, chicken; conditions: 2 mM butyrate and at least one concentration of BIX01294, 24 h (FIG. 5)
Method: as §1, §2

[5] = tested on: AvBD8; assay: RT-qPCR of AvBD8 in HTC cells; assay type: cell-based, chicken; conditions: 2 mM butyrate and at least one concentration of BIX01294, 24 h (FIG. 5)
Method: as §1, §2

[6] = tested on: AvBD10; assay: RT-qPCR of AvBD10 in HTC cells; assay type: cell-based, chicken; conditions: 2 mM butyrate and at least one concentration of BIX01294, 24 h (FIG. 5)
Method: as §1, §2

[7] = tested on: AvBD14; assay: RT-qPCR of AvBD14 in HTC cells; assay type: cell-based, chicken; conditions: 2 mM butyrate and at least one concentration of BIX01294, 24 h (FIG. 5)
Method: as §1, §2

[8] = tested on: AvBD9; assay: RT-qPCR of AvBD9 in HD11 macrophages; assay type: cell-based, chicken; conditions: HD11 cells, 5 μM compound with 2 mM butyrate, 24 h (FIG. 6, Panel A)
Method: as §1, §2

[9] = tested on: AvBD1; assay: RT-qPCR of AvBD1 in HD11 macrophages; assay type: cell-based, chicken; conditions: HD11 cells, 5 μM compound with 2 mM butyrate, 24 h (FIG. 6, Panel B)
Method: as §1, §2

[10] = tested on: AvBD4; assay: RT-qPCR of AvBD4 in HD11 macrophages; assay type: cell-based, chicken; conditions: HD11 cells, 5 μM compound with 2 mM butyrate, 24 h (FIG. 6, Panel C)
Method: as §1, §2

[11] = tested on: AvBD10; assay: RT-qPCR of AvBD10 in HD11 macrophages; assay type: cell-based, chicken; conditions: HD11 cells, 5 μM compound with 2 mM butyrate, 24 h (FIG. 6, Panel D)
Method: as §1, §2

[12] = tested on: AvBD9; assay: RT-qPCR of AvBD9 in peripheral blood mononuclear cells (PBMCs); assay type: cell-based; conditions: chicken PBMCs, 24 h (FIG. 6, Panel F)
Method: Isolation, culture, and stimulation of chicken peripheral blood mononuclear cells (PBMCs). Chicken PBMCs were isolated from EDTA-anticoagulated venous blood collected from 2- to 4-week-old broiler chickens through gradient centrifugation using Histopaque 1077 (Millipore Sigma) as previously described (22, 26). PBMCs were seeded at 3×10^7 cells/well in 6-well cell culture plates and stimulated with different concentrations of an HMTi or DNMTi with or without 1 mM butyrate for 24 h, followed by RNA isolation and HDP gene expression analysis as described below.
Total RNA extraction and gene expression analysis. Total RNA was extracted using RNAzol (Molecular Biology Research Center, Cincinnati, OH) according to the manufacturer's protocol. Gene expression was performed using reverse transcription-quantitative PCR (RT-qPCR) as previously described (27-29). […] The cDNA was then diluted 10-fold with RNase-free water prior to real-time PCR using QuantiTect SYBR® Green PCR Kit (Qiagen, Valencia, CA) in 10-μl reactions using primers specific for HDP, barrier function, and inflammatory cytokine genes as described (27, 29, 30). […] The fold changes in gene expression in the cells treated with individual compounds or in combinations were calculated relative to the cells treated with an equal volume of RPMI 1640 or DMSO using the ΔΔCt method (31).

[13] = tested on: CLDN1; assay: RT-qPCR of CLDN1 (claudin 1) in HTC cells; assay type: cell-based, chicken
Method: Culture and stimulation of macrophages. Two different chicken macrophage cell lines, HTC (24) and HD11 (25), were kindly provided by Dr. Narayan C. Rath and Dr. Hyun Lillehoj of USDA-ARS and maintained in RPMI 1640 containing 10% heat-inactivated FBS, 100 U/ml penicillin, and 100 μg/ml streptomycin and subcultured every 3-4 days. After overnight seeding at 1.5×10^6 cells/well in 6-well cell culture plates, cells were treated with different concentrations of each compound for 24 h or with the indicated concentration of each compound for various lengths of time for dose-response and time-course experiments, respectively. To study the synergy between HMTi/DNMTi and HDACi, different concentrations of an HMTi or DNMTi were added to the cells in the presence or absence of an HDACi for 24 h, followed by RNA isolation and HDP gene expression analysis as described below. HTC cells were also stimulated with butyrate, BIX01294, or their combination for 24 h, followed by 3-h stimulation with 10 ng/ml LPS and subsequent expression analysis.
Total RNA extraction and gene expression analysis. Total RNA was extracted using RNAzol (Molecular Biology Research Center, Cincinnati, OH) according to the manufacturer's protocol. Gene expression was performed using reverse transcription-quantitative PCR (RT-qPCR) as previously described (27-29). Reverse transcription was performed with 300 ng of total RNA and Maxima® First Strand cDNA Synthesis Kit (ThermoFisher Scientific, Pittsburgh, PA). The cDNA was then diluted 10-fold with RNase-free water prior to real-time PCR using QuantiTect SYBR® Green PCR Kit (Qiagen, Valencia, CA) in 10-μl reactions using primers specific for HDP, barrier function, and inflammatory cytokine genes as described (27, 29, 30). PCR was run in CFX Connect Real-Time PCR System (Bio-Rad, Hercules, CA) using the following program: 95° C. for 10 min, followed by 40 cycles of 94° C. for 15 sec, 55° C. for 20 sec, and 72° C. for 30 sec. The specificity of PCR reactions was confirmed by the melting curve analysis. The glyceraldehyde-3-phosphate dehydrogenase (GAPDH) gene was used as the reference for data normalization. The fold changes in gene expression in the cells treated with individual compounds or in combinations were calculated relative to the cells treated with an equal volume of RPMI 1640 or DMSO using the ΔΔCt method (31).

COc1cc2nc(N3CCCN(C)CC3)nc(NC3CCN(Cc4ccccc4)CC3)c2cc1OC [BIX01294]
activation of the AvBD9 gene promoter (relative luciferase activity) ([1]; compound alone, different concentrations, 24 h (FIG. 2, Panel A)): concentration-dependent activation
synergy in luciferase activity with butyrate ([1]; different concentrations in combination with 2 mM butyrate, 24 h (FIG. 3)): marked dose-dependent increase in the synergy
induction of the HDP genes detectable in HTC cells, combination with butyrate ([2]; BIX01294 with 2 mM butyrate, 24 h (FIG. 5)): all were synergistically induced
induction of most other HDP genes, combination with HDACi ([2]; BIX01294 with any of the three HDACi (vorinostat, butyrate, mocetinostat), 24 h (FIG. 7, Panel B)): synergistically induced
AvBD2 upregulation, combination with butyrate [3]: 2- to 3 fold
AvBD4 induction, combination with butyrate [4]: greater than 100 fold
AvBD8 induction, combination with butyrate [5]: greater than 100 fold
AvBD10 induction, combination with butyrate [6]: greater than 100 fold
AvBD14 induction, combination with butyrate [7]: greater than 100 fold
synergy in AvBD9 induction with butyrate [8]: drastic synergy
AvBD1 induction, combination with butyrate [9]: synergistically induced, albeit at lower magnitudes
AvBD4 induction, combination with butyrate [10]: synergistically induced, albeit at lower magnitudes
AvBD10 induction, combination with butyrate [11]: synergistically induced, albeit at lower magnitudes
AvBD9 induction ([12]; BIX01294 alone): induced AvBD9 in a dose-dependent manner
synergy in AvBD9 induction with butyrate ([12]; BIX01294 with 1 mM butyrate): obvious synergy
CLDN1 synergy with butyrate after subsequent LPS treatment ([13]; 5 μM BIX01294 + 2 mM butyrate 24 h, then 10 ng/ml LPS 3 h (FIG. 8, Panel A)): further enhanced
synergy in CLDN1 expression with butyrate ([13]; 5 μM BIX01294 + 2 mM butyrate, 24 h (FIG. 8, Panel A)): marked synergy
activity in increasing CLDN1 expression ([13]; 5 μM BIX01294 alone, 24 h (FIG. 8, Panel A)): minimum activity
